Reference: patent publication US10597390B2, “Indoles for use in influenza virus infection” (Janssen Sciences Ireland UC, priority 2014, dated 2020)

What was measured:
[1] = test system: influenza virus A/Taiwan/1/86 (H1N1); assay: organism not typed; type: cell-based; conditions: MDCK, 72 h, CPE in MDCK cells, three days post-virus exposure, ATPlite
in vitro = conditions: dog, TOX MDCK CC50

Row | Compound | IC50 [1] | melting point | CC50 at 3 days (in vitro)
1 | O=C(N[C@@H]1CCC[C@H](Nc2nc(-c3c[nH]c4c(F)cc(F)cc34)ncc2F)C1)c1ncccn1 [Compound 108] | 6 nM | > 300 °C | > 24000 nM
2 | O=C(N[C@@H]1CCC[C@H](Nc2nc(-c3c[nH]c4c(F)cc(F)cc34)ncc2F)C1)c1nccs1 [Compound 109] | 2 nM | 277 °C | 6100 nM
3 | Cc1ccnc(C(=O)N[C@@H]2CCC[C@H](Nc3nc(-c4c[nH]c5c(F)cc(F)cc45)ncc3F)C2)c1 [Compound 110] | 3 nM | 255 °C | 9600 nM
4 | O=C(N[C@@H]1CCC[C@H](Nc2nc(-c3c[nH]c4c(F)cc(F)cc34)ncc2F)C1)c1c[nH]nn1 [Compound 111] | 0.6 nM | 265 °C | 9000 nM
5 | Cc1cc(C(=O)N[C@@H]2CCC[C@H](Nc3nc(-c4c[nH]c5c(F)cc(F)cc45)ncc3F)C2)n[nH]1 [Compound 112] | 3 nM | 283 °C | 18000 nM
6 | Cc1ncn(C)c1C(=O)N[C@@H]1CCC[C@H](Nc2nc(-c3c[nH]c4c(F)cc(F)cc34)ncc2F)C1 [Compound 113] | 39 nM | > 300 °C | > 25000 nM
7 | O=C(N[C@@H]1CCC[C@H](Nc2nc(-c3c[nH]c4c(F)cc(F)cc34)ncc2F)C1)c1ncn[nH]1 [Compound 114] | 430 nM | 289.8 °C | > 25000 nM
8 | CCn1nccc1C(=O)N[C@@H]1CCC[C@H](Nc2nc(-c3c[nH]c4c(F)cc(F)cc34)ncc2F)C1 [Compound 115] | 380 nM | 266.8 °C | > 25000 nM
9 | Cc1cc(C(=O)N[C@@H]2CCC[C@H](Nc3nc(-c4c[nH]c5c(F)cc(F)cc45)ncc3F)C2)n(C)n1 [Compound 116] | 12 nM | 279 °C | 5800 nM
10 | Cc1c(C(=O)N[C@@H]2CCC[C@H](Nc3nc(-c4c[nH]c5c(F)cc(F)cc45)ncc3F)C2)nnn1C [Compound 117] | 11 nM | 202 °C | 8700 nM
11 | Cc1nc(C(=O)N[C@@H]2CCC[C@H](Nc3nc(-c4c[nH]c5c(F)cc(F)cc45)ncc3F)C2)no1 [Compound 118] | 43 nM | 233 °C | > 25000 nM
12 | Cn1nncc1C(=O)N[C@@H]1CCC[C@H](Nc2nc(-c3c[nH]c4c(F)cc(F)cc34)ncc2F)C1 [Compound 119] | 5 nM | 285 °C | > 50000 nM
13 | Cn1cc(C(=O)N[C@@H]2CCC[C@H](Nc3nc(-c4c[nH]c5c(F)cc(F)cc45)ncc3F)C2)cn1 [Compound 120] | 3 nM | > 300 °C | > 25000 nM
14 | CN(C)c1ccnc(C(=O)N[C@@H]2CCC[C@H](Nc3nc(-c4c[nH]c5c(F)cc(F)cc45)ncc3F)C2)c1 [Compound 121] | 6 nM | 282.8 °C | 15700 nM
15 | Cn1nccc1C(=O)N[C@@H]1CCC[C@H](Nc2nc(-c3c[nH]c4c(F)cc(F)cc34)ncc2F)C1 [Compound 122] | 2 nM | > 300 °C | > 25000 nM
16 | Nc1nccc(C(=O)N[C@@H]2CCC[C@H](Nc3nc(-c4c[nH]c5c(F)cc(F)cc45)ncc3F)C2)n1 [Compound 123] | 11 nM | 235 °C | > 25000 nM
17 | Nc1cc(C(=O)N[C@@H]2CCC[C@H](Nc3nc(-c4c[nH]c5c(F)cc(F)cc45)ncc3F)C2)ncn1 [Compound 124] | 7 nM | 228 °C | 11400 nM
18 | O=C(N[C@@H]1CCC[C@H](Nc2nc(-c3c[nH]c4c(F)cc(F)cc34)ncc2F)C1)c1cc[nH]n1 [Compound 126] | 2 nM | > 300 °C | 10000 nM
19 | O=C(N[C@@H]1CCC[C@H](Nc2nc(-c3c[nH]c4c(F)cc(F)cc34)ncc2F)C1)c1ncc[nH]1 [Compound 127] | 1 nM | > 300 °C | > 100000 nM
20 | Cn1cc(Br)nc1C(=O)N[C@@H]1CCC[C@H](Nc2nc(-c3c[nH]c4c(F)cc(F)cc34)ncc2F)C1 [Compound 128] | 10 nM | 176 °C | 5900 nM
21 | Cn1cc(C(=O)N[C@@H]2CCC[C@H](Nc3nc(-c4c[nH]c5c(F)cc(F)cc45)ncc3F)C2)nn1 [Compound 130] | 32 nM | > 300 °C | 3200 nM
22 | Nc1cc(C(=O)N[C@@H]2CCC[C@H](Nc3nc(-c4c[nH]c5c(F)cc(F)cc45)ncc3F)C2)n[nH]1 [Compound 131] | 4 nM | 245.7 °C | 19400 nM
23 | Cc1ocnc1C(=O)N[C@@H]1CCC[C@H](Nc2nc(-c3c[nH]c4c(F)cc(F)cc34)ncc2F)C1 [Compound 132] | 2 nM | 266.7 °C | 11400 nM

Row | Compound | IC50 [1] | melting point | CC50 at 3 days (in vitro)
24 | Cn1cnc(C(=O)N[C@@H]2CCC[C@H](Nc3nc(-c4c[nH]c5c(F)cc(F)cc45)ncc3F)C2)n1 [Compound 134] | 14 nM | 183.2 °C | 10300 nM
25 | Cc1c[nH]c(C(=O)N[C@@H]2CCC[C@H](Nc3nc(-c4c[nH]c5c(F)cc(F)cc45)ncc3F)C2)n1 [Compound 135] | 2 nM | 281.9 °C | 8400 nM
26 | Cc1cn(C)nc1C(=O)N[C@@H]1CCC[C@H](Nc2nc(-c3c[nH]c4c(F)cc(F)cc34)ncc2F)C1 [Compound 136] | 3 nM | 265.1 °C | 7600 nM
27 | O=C(N[C@@H]1CCC[C@H](Nc2nc(-c3c[nH]c4c(F)cc(F)cc34)ncc2F)C1)c1cncnc1 [Compound 138] | 39 nM | > 300 °C | > 25000 nM
28 | O=C(N[C@@H]1CCC[C@H](Nc2nc(-c3c[nH]c4c(F)cc(F)cc34)ncc2F)C1)C1CCCN1 (stereo partly drawn) [Compound 139] | 2000 nM | 208.1 °C | 11500 nM
29 | Cn1ncnc1C(=O)N[C@@H]1CCC[C@H](Nc2nc(-c3c[nH]c4c(F)cc(F)cc34)ncc2F)C1 [Compound 140] | 7 nM | 172.7 °C | > 25000 nM
30 | Cc1[nH]nnc1C(=O)N[C@@H]1CCC[C@H](Nc2nc(-c3c[nH]c4c(F)cc(F)cc34)ncc2F)C1 [Compound 141] | 2 nM | 256.6 °C | 8400 nM
31 | O=C(N[C@@H]1CCC[C@H](Nc2nc(-c3c[nH]c4c(F)cc(F)cc34)ncc2F)C1)c1c[nH]cn1 [Compound 142] | 2 nM | 219.9 °C | 10000 nM
32 | Cn1cnnc1C(=O)N[C@@H]1CCC[C@H](Nc2nc(-c3c[nH]c4c(F)cc(F)cc34)ncc2F)C1 [Compound 143] | 39 nM | 169.8 °C | 9900 nM
33 | Cc1cnc(C(=O)N[C@@H]2CCC[C@H](Nc3nc(-c4c[nH]c5c(F)cc(F)cc45)ncc3F)C2)n1C [Compound 144] | 4 nM | 204.9 °C | 7200 nM
34 | Nc1nc(C(=O)N[C@@H]2CCC[C@H](Nc3nc(-c4c[nH]c5c(F)cc(F)cc45)ncc3F)C2)cs1 [Compound 145] | 2 nM | 178.1 °C | 6800 nM
35 | Nc1n[nH]cc1C(=O)N[C@@H]1CCC[C@H](Nc2nc(-c3c[nH]c4c(F)cc(F)cc34)ncc2F)C1 [Compound 146] | 1 nM | 169.7 °C | 10700 nM
36 | O=C(O)c1n[nH]nc1C(=O)N[C@@H]1CCC[C@H](Nc2nc(-c3c[nH]c4c(F)cc(F)cc34)ncc2F)C1 [Compound 147] | 47 nM | > 300 °C | > 25000 nM
37 | O=C(N[C@@H]1CCC[C@H](Nc2nc(-c3c[nH]c4c(F)cc(F)cc34)ncc2F)C1)[C@H]1CCCN1 [Compound 148] | 600 nM | 220.8 °C | 10300 nM
38 | Cn1nc(C(=O)N[C@@H]2CCC[C@H](Nc3nc(-c4c[nH]c5c(F)cc(F)cc45)ncc3F)C2)cc1N [Compound 149] | 2 nM | 253.4 °C | 10000 nM
39 | Cc1sc(N)nc1C(=O)N[C@@H]1CCC[C@H](Nc2nc(-c3c[nH]c4c(F)cc(F)cc34)ncc2F)C1 [Compound 150] | 3 nM | 248.4 °C | 4800 nM
40 | Cn1nnnc1C(=O)N[C@@H]1CCC[C@H](Nc2nc(-c3c[nH]c4c(F)cc(F)cc34)ncc2F)C1 [Compound 152] | 40 nM | 250.3 °C | > 5000 nM
41 | Cn1nnc(C(=O)N[C@@H]2CCC[C@H](Nc3nc(-c4c[nH]c5c(F)cc(F)cc45)ncc3F)C2)n1 [Compound 153] | 20 nM | 230 °C | > 1000 nM
42 | O=C(N[C@@H]1CCC[C@H](Nc2nc(-c3c[nH]c4c(F)cc(F)cc34)ncc2F)C1)c1cscn1 [Compound 154] | 2 nM | 266.8 °C | 15900 nM
43 | O=C(N[C@@H]1CCC[C@H](Nc2nc(-c3c[nH]c4c(F)cc(F)cc34)ncc2F)C1)c1csc(C(=O)O)n1 [Compound 155] | 3 nM | 260.8 °C | > 22800 nM
44 | Cn1ncc(C(=O)N[C@@H]2CCC[C@H](Nc3nc(-c4c[nH]c5c(F)cc(F)cc45)ncc3F)C2)c1N [Compound 156] | 0.8 nM | 248.7 °C | 8500 nM
45 | COc1ccnc(C(=O)N[C@@H]2CCC[C@H](Nc3nc(-c4c[nH]c5c(F)cc(F)cc45)c(C#N)cc3F)C2)c1 [Compound 161] | 3 nM | 285.5 °C | > 25000 nM
46 | Cc1cc(F)c2[nH]cc(-c3ncc(F)c(N[C@H]4C5CCC(CC5)[C@@H]4C(=O)O)n3)c2c1 [Compound 166] | 6 nM | 98 °C | 1000 nM
